Test results reported in patent US11873298B2, “Compounds and uses thereof” (JANSSEN PHARMACEUTICA NV, priority 2017, dated 2024).
Values joined by “and” are separate entries in the source; they are usually repeats but may differ in a detail not shown here. Identical values can stand only once.

Key:
Type in all cases: cell-based
[1] = molecular target: T1, Ole1 (Saccharomyces cerevisiae, UniProt P21147); experiment: Growth inhibition of yeast strain expressing Ole1 as sole desaturase; settings: yeast strain expressing Ole1 as sole desaturase
T1 construct: expressed in transfected cells; host or cells: S. cerevisiae ole1Δ strain (W303 pdr1Δ pdr3Δ background), plasmid pRS316 with TDH3 promoter and CYC1 terminator
T1 sequence (P21147 1-510): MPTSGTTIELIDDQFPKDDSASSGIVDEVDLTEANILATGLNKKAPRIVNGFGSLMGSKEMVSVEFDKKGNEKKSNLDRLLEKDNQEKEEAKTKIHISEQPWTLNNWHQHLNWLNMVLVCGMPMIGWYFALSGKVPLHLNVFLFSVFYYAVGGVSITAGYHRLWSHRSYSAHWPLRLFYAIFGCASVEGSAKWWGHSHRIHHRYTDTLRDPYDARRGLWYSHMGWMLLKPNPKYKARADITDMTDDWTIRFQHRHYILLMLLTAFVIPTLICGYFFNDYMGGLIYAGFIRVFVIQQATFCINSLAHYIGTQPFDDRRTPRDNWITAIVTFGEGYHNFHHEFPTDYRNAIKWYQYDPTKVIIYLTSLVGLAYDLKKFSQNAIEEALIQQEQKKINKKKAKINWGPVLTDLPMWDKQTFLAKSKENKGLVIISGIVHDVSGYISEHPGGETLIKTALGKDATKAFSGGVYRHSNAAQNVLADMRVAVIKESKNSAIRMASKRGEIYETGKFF
In short: (§1)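 OD600 growth read-out. ole1Δ yeast, pdr1Δ pdr3Δ, with Ole1/SCD1/SCD5 on a plasmid; SX-Ura media throughout; 2× cell density 0.02 in CSM-Galactose; DMSO compound dilutions; humidified 30° C.; Ole1 stopped at 24 h, SCD1/SCD5 at 40 h.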

[2] = molecular target: T2, SCD1 (Homo sapiens, UniProt O00767); experiment: Growth inhibition of humanized yeast strain expressing SCD1 as sole desaturase; settings: humanized yeast strain expressing SCD1
T2 construct: host or cells: S. cerevisiae ole1Δ strain (W303 pdr1Δ pdr3Δ background), plasmid pRS316 with TDH3 promoter and CYC1 terminator
T2 sequence (O00767 1-359): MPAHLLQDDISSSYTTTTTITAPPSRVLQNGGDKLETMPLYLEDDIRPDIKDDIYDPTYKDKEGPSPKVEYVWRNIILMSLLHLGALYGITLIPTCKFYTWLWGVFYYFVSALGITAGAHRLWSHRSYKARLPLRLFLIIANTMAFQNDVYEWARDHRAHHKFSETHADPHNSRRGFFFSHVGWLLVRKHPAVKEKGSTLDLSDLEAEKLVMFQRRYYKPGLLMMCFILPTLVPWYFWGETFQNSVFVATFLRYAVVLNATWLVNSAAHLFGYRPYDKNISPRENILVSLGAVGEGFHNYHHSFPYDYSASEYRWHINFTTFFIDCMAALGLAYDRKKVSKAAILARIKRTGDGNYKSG
In short: as §1

[3] = molecular target: T3, SCD5 (Homo sapiens, UniProt Q86SK9); experiment: Growth inhibition of humanized yeast strain expressing SCD5 as sole desaturase; settings: humanized yeast strain expressing SCD5
T3 construct: host or cells: S. cerevisiae ole1Δ strain (W303 pdr1Δ pdr3Δ background), plasmid pRS316 with TDH3 promoter and CYC1 terminator
T3 sequence (Q86SK9 1-330): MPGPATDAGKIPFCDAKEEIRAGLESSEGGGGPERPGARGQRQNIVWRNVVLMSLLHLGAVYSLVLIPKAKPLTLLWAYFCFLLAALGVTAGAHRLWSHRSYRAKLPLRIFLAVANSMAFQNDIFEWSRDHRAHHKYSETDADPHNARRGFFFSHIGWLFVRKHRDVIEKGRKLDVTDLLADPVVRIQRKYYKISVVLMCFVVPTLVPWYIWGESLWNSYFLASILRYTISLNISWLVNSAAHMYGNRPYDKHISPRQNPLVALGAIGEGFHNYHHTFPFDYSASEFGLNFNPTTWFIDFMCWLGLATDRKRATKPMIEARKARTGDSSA
In short: as §1

SMILES | IC50 [1] | OLE1 % Max Inhibition [1] | IC50 [2] | SCD1 % Max Inhibition [2] | IC50 [3] | SCD5 % Max Inhibition [3]
CC(C)n1ncc2ccc(-c3noc(C4CCN(C(=O)CNC(=O)c5ccccc5)CC4)n3)cc21 [Compound 171] | > 45 µM | 6.77% | 40.4 µM | 74.21% | > 45 µM | −0.14%
CC(C)n1cc(-c2noc(C3CCN(C(=O)C4CC(=O)N(c5cccc(Cl)c5)C4)CC3)n2)cn1 (stereo not drawn) [Compound 338] | > 45 µM | 85.2% | > 45 µM | 60.0% | > 45 µM | 76.3%
CCN1C(=O)CC(C)c2ccc(-c3noc(C4CCN(C(=O)CNC(=O)c5ccccc5)CC4)n3)cc21 (stereo not drawn) [Compound 298] | > 45 µM | 6.6% | > 45 µM | 92.3% | > 45 µM | 21.3%
Cc1nn(C)c2cc(-c3noc(C4CCN(C(=O)[C@H]5CCN(C(=O)c6ccccc6)C5)CC4)n3)ccc12 [Compound 239] | > 45 µM | 29.21% | > 45 µM | 75.58% | > 45 µM | 6.02%
Cc1nn(C)c2cc(-c3noc(C4CCN(C(=O)Oc5ccccc5)CC4)n3)ccc12 [Compound 272] | > 45 µM | 40.3% |  | 70.8% | > 45 µM | 51.9%
COc1ccc(-c2noc(C3CCN(C(=O)[C@@H](CO)NC(=O)c4ccccc4)CC3)n2)cc1OC [Compound 185] | > 45 µM | 93.51% | > 45 µM | 97.91% | > 45 µM | 72.91%
CCNCc1nc(-c2ccc3c(c2)N(CC)C(=O)CO3)no1 [Compound 493] | > 45 µM | 91.16% |  | 68.84% | 30.2 µM | 60.28%
Cc1nn(C)c2cc(-c3noc(C4CCN(C(=O)CNC(=O)c5ccsc5)CC4)n3)ccc12 [Compound 222] | > 45 µM | 3.59% | > 45 µM | 40.42% | > 45 µM | 1.92%
CCOC(=O)C(C)(C)n1ncc2ccc(-c3noc(C4CCN(C(=O)C5CC(=O)N(c6ccccc6)C5)CC4)n3)cc21 (stereo not drawn) [Compound 196] | > 45 µM | 93.87% | > 45 µM | 86.58% | > 45 µM | 75.88%
O=C(C1CC(=O)N(c2cccc(Cl)c2)C1)N1CCC(c2nc(N3CCC4(CC3)COC4)no2)CC1 (stereo not drawn) [Compound 325] | > 45 µM | 79.2% | > 45 µM | 73.7% | > 45 µM | 67.2%
Cc1nn(C)c2cc(-c3nc(C4CCN(C(=O)CNC(=O)c5ccccc5)CC4)no3)ccc12 [Compound 326] | > 45 µM | 7.5% |  | 77.1% | > 45 µM | 26.5%
Cc1nn(C)c2cc(-c3noc(C4CCN(C(=O)c5ccc(Cl)cc5)CC4)n3)ccc12 [Compound 291] | > 45 µM |  |  | 5.0% and 0.30% | > 45 µM | 8.5% and 3.29%
Cc1nn(C)c2cc(-c3noc(C4CCN(C(=O)CNC(=O)c5cccc(C#N)c5)CC4)n3)ccc12 [Compound 268] | > 45 µM | 4.39% and 0.14% | ≥ 45 µM | 79.03% and 65% | > 45 µM | 8.68% and 2.67%
N#CCC1CN(c2noc(C3CCN(C(=O)C4CC(=O)N(c5ccccc5)C4)CC3)n2)C1 (stereo not drawn) [Compound 242] | > 45 µM | 95.59% | > 45 µM | 101.23% | > 45 µM | 79.22%
Cn1c(=O)n(C)c2cc(-c3noc(C4CCN(C(=O)[C@H]5CC(=O)N(c6ccccn6)C5)CC4)n3)ccc21 [Compound 256] | > 45 µM | 4.16% |  | 76.04% | > 45 µM | 72.11%
Cc1nn(C)c2cc(-c3noc(C4CCN(C(=O)c5cc(F)ccc5C(F)(F)F)CC4)n3)ccc12 [Compound 292] | > 45 µM | 13.6% |  | 9.5% | > 45 µM | 10.2%
Cc1ccc(N2C[C@H](C(=O)N3CCC(c4nc(-c5ccc6c(C)nn(C)c6c5)no4)CC3)CC2=O)nc1 [Compound 303] | > 45 µM | 14.2% and 8.50% | ≥ 45 µM | 94.3% and 65% | > 45 µM | 15.6% and 20.68%
O=C(CN1Cc2ccccc2C1=O)N1CCC(c2nc(-c3ccc4c(c3)COC4)no2)CC1 [Compound 223] | > 45 µM | 2.22% | 40.6 µM | 68.23% | 41 µM | 67.37%
Cn1c(=O)n(C)c2cc(-c3noc(C4CCN(C(=O)CNC(=O)c5cccnc5)CC4)n3)ccc21 [Compound 233] | > 45 µM | 18.46% | > 45 µM | 73.65% | > 45 µM | 74.91%
Cc1nn(C)c2cc(-c3nsc(C4CCN(C(=O)CNC(=O)c5ccccc5)CC4)n3)ccc12 [Compound 250] | > 45 µM | 4.41% |  | 86.09% | > 45 µM | 14.48%
Cc1nn(C)c2cc(-c3noc(C4CCN(C(=O)CNC(=O)c5cc(Cl)ccc5C(F)(F)F)CC4)n3)ccc12 [Compound 328] | > 45 µM | 21.9% |  | 86.6% | > 45 µM | 80.5%
